Reference: ChEMBL document CHEMBL1201862, “PubChem BioAssay data set” (2004)
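Briefly, cells in 96-well plates were exposed to five compound concentrations for 48 h, and endpoints were estimated by linear interpolation. GI50: concentration for 50% inhibition of growth.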 Calls of active or inactive are those of the source. Rule as the data show it: active = GI50 up to about 1.1 µM and inactive = higher.

Key:
Experiment in all cases: DTP human tumour cell line panel, 48 h
[1] = system: RPMI-8226
[2] = system: UACC-257
[3] = system: UACC-62
[4] = system: ACHN
[5] = system: OVCAR-5
[6] = system: COLO 205
[7] = system: SW-620
[8] = system: KM-20L2
[9] = system: M19-MEL
[10] = system: OVCAR-3
[11] = system: HOP-18
[12] = system: OVCAR-4
[13] = system: XF498
[14] = system: LXFL 529
[15] = system: NCI-H23
[16] = system: HCC 2998
[17] = system: BT-549
[18] = system: T47D
[19] = system: MDA-N
[20] = system: MCF7

Compound	GI50 [1]	GI50 [2]	GI50 [3]	GI50 [4]	GI50 [5]	GI50 [6]	GI50 [7]	GI50 [8]	GI50 [9]	GI50 [10]	GI50 [11]	GI50 [12]	GI50 [13]	GI50 [14]	GI50 [15]	GI50 [16]	GI50 [17]	GI50 [18]	GI50 [19]	GI50 [20]
C=C/C=C/NC(=O)OCc1ccccc1	82.8 µM (inactive)	> 100 µM (inactive)	> 100 µM (inactive)	> 100 µM (inactive)	> 100 µM (inactive)	> 100 µM (inactive)	> 100 µM (inactive)	> 100 µM (inactive)	> 100 µM (inactive)	> 100 µM (inactive)	> 100 µM (inactive)	> 100 µM (inactive)	> 100 µM (inactive)	> 100 µM (inactive)	–	–	–	–	–	–
CCCCc1ccc(-n2c3nc(=O)n(C)c(=O)c-3nc3ccccc32)cc1	13.7 µM (inactive)	4.01 µM (inactive)	1.77 µM (inactive)	10.7 µM (inactive)	18.1 µM (inactive)	3.09 µM (inactive)	6.18 µM (inactive)	4.4 µM (inactive)	1.5 µM (inactive)	2.86 µM (inactive)	10.8 µM (inactive)	8 µM (inactive)	18.2 µM (inactive)	15.6 µM (inactive)	2.37 µM (inactive)	4.36 µM (inactive)	–	–	–	–
C=CCNC1=NC(=O)C(CC(=O)Nc2cccc(Cl)c2)S1 (stereo unspecified)	> 100 µM (inactive)	> 100 µM (inactive)	> 100 µM (inactive)	> 100 µM (inactive)	> 100 µM (inactive)	> 100 µM (inactive)	> 100 µM (inactive)	> 100 µM (inactive)	> 100 µM (inactive)	> 100 µM (inactive)	> 100 µM (inactive)	> 100 µM (inactive)	> 100 µM (inactive)	> 100 µM (inactive)	> 100 µM (inactive)	> 100 µM (inactive)	–	–	–	–
[O-][n+]1ccccc1S [PYRITHIONE ZINC]	0.1 µM (active)	2.09 µM (inactive)	0.604 µM (active)	3.21 µM (inactive)	5.55 µM (inactive)	0.625 µM (active)	0.161 µM (active)	1.04 µM (active)	0.562 µM (active)	0.304 µM (active)	3.78 µM (inactive)	0.542 µM (active)	0.226 µM (active)	0.327 µM (active)	1.21 µM (inactive)	0.452 µM (active)	–	–	–	–
Cn1cnc([N+](=O)[O-])c1Sc1nc2cc([N+](=O)[O-])ccc2[nH]1	21.6 µM (inactive)	14.3 µM (inactive)	11.9 µM (inactive)	36.5 µM (inactive)	48.4 µM (inactive)	10.4 µM (inactive)	27.9 µM (inactive)	24.8 µM (inactive)	17.4 µM (inactive)	37.9 µM (inactive)	45.8 µM (inactive)	46.6 µM (inactive)	10.8 µM (inactive)	12.6 µM (inactive)	23.8 µM (inactive)	15 µM (inactive)	–	–	–	–
N#CNC1=NC(CCCC(=O)Nc2cccc([N+](=O)[O-])c2)=C(c2nc3ccccc3[nH]2)C(N)N1 (stereo unspecified)	> 100 µM (inactive)	> 100 µM (inactive)	> 100 µM (inactive)	> 100 µM (inactive)	> 100 µM (inactive)	> 100 µM (inactive)	> 100 µM (inactive)	> 100 µM (inactive)	> 100 µM (inactive)	> 100 µM (inactive)	64.9 µM (inactive)	> 100 µM (inactive)	> 100 µM (inactive)	> 100 µM (inactive)	> 100 µM (inactive)	> 100 µM (inactive)	–	–	–	–
Cc1ccc(C2=C(c3ccccc3)C(Br)(c3ccc(C)cc3)C(c3ccccc3)=C2c2ccc(C)cc2)cc1	> 100 µM (inactive)	> 100 µM (inactive)	> 100 µM (inactive)	> 100 µM (inactive)	> 100 µM (inactive)	> 100 µM (inactive)	> 100 µM (inactive)	> 100 µM (inactive)	> 100 µM (inactive)	> 100 µM (inactive)	2.09 µM (inactive)	> 100 µM (inactive)	> 100 µM (inactive)	> 100 µM (inactive)	> 100 µM (inactive)	> 100 µM (inactive)	–	–	–	–
CC(=O)O[C@H]1CC[C@@]2(C)C(=CC[C@@H]3C2CC[C@]2(C)C(=O)NC(=O)CC32)C1 (stereo partly specified)	–	> 100 µM (inactive)	> 100 µM (inactive)	> 100 µM (inactive)	> 100 µM (inactive)	> 100 µM (inactive)	> 56.6 µM (inactive)	> 100 µM (inactive)	> 100 µM (inactive)	–	> 100 µM (inactive)	> 100 µM (inactive)	> 100 µM (inactive)	> 100 µM (inactive)	> 100 µM (inactive)	> 100 µM (inactive)	–	–	–	–
COc1cc(/C=C/C(=O)Oc2ccc(NC(C)=O)cc2)ccc1C(=O)OCc1ccccc1	> 100 µM (inactive)	> 100 µM (inactive)	69.2 µM (inactive)	> 73.8 µM (inactive)	> 100 µM (inactive)	> 100 µM (inactive)	> 100 µM (inactive)	> 100 µM (inactive)	> 100 µM (inactive)	> 100 µM (inactive)	> 100 µM (inactive)	> 96.4 µM (inactive)	25.6 µM (inactive)	> 100 µM (inactive)	> 89.9 µM (inactive)	> 100 µM (inactive)	> 100 µM (inactive)	> 100 µM (inactive)	> 100 µM (inactive)	> 86.5 µM (inactive)
CCCc1c(C(=O)OCC)[nH]c(-c2ccc(-c3[nH]c(C(=O)OCC)c(CCC)c3C(=O)OCC)o2)c1C(=O)OCC	> 100 µM (inactive)	> 100 µM (inactive)	> 100 µM (inactive)	> 100 µM (inactive)	> 100 µM (inactive)	> 100 µM (inactive)	> 100 µM (inactive)	> 100 µM (inactive)	> 100 µM (inactive)	> 100 µM (inactive)	> 100 µM (inactive)	> 100 µM (inactive)	> 100 µM (inactive)	> 100 µM (inactive)	> 100 µM (inactive)	> 100 µM (inactive)	–	–	–	–
CC(C(=O)C(C)O[Si](c1ccccc1)(c1ccccc1)C(C)(C)C)=P(c1ccccc1)(c1ccccc1)c1ccccc1 (stereo unspecified)	2.34 µM (inactive)	3.71 µM (inactive)	3.94 µM (inactive)	4.08 µM (inactive)	11 µM (inactive)	1.8 µM (inactive)	3.91 µM (inactive)	4.13 µM (inactive)	3.11 µM (inactive)	2.9 µM (inactive)	3.05 µM (inactive)	3.37 µM (inactive)	2.79 µM (inactive)	3.3 µM (inactive)	3.23 µM (inactive)	3.57 µM (inactive)	–	–	–	–
Cc1cc(C(C)(C)C)cc(Cc2cc(C(C)(C)C)cc(Cc3cc(C(C)(C)C)cc(C)c3O)c2O)c1O	2.47 µM (inactive)	8.45 µM (inactive)	6.84 µM (inactive)	–	17.5 µM (inactive)	16.2 µM (inactive)	5.28 µM (inactive)	16.1 µM (inactive)	3.77 µM (inactive)	4.75 µM (inactive)	15.4 µM (inactive)	7.5 µM (inactive)	1.65 µM (inactive)	8.04 µM (inactive)	10 µM (inactive)	–	–	–	–	–
CCOC(=O)C1=C(Nc2ccccc2)OC/C1=N\NC(=O)Cc1ccccc1	> 50 µM (inactive)	> 50 µM (inactive)	> 50 µM (inactive)	–	> 50 µM (inactive)	> 50 µM (inactive)	> 50 µM (inactive)	> 50 µM (inactive)	> 50 µM (inactive)	> 50 µM (inactive)	> 50 µM (inactive)	> 50 µM (inactive)	> 50 µM (inactive)	> 50 µM (inactive)	> 50 µM (inactive)	> 50 µM (inactive)	–	–	–	–
CN(CCO)c1nc(=O)c2c([nH]1)CCC2	> 100 µM (inactive)	> 100 µM (inactive)	> 100 µM (inactive)	> 100 µM (inactive)	> 100 µM (inactive)	> 100 µM (inactive)	> 100 µM (inactive)	> 100 µM (inactive)	> 100 µM (inactive)	> 100 µM (inactive)	> 100 µM (inactive)	> 100 µM (inactive)	> 100 µM (inactive)	> 100 µM (inactive)	> 100 µM (inactive)	> 100 µM (inactive)	–	–	–	–
